{"source": "patent US12090225B2", "about": "(Avalyn Pharma Inc., priority 2018, dated 2024)", "key": {"[1]": {"assay": "Formulation screening: compatibility of nintedanib esylate with pirfenidone and osmolality adjusting agents (visual appearance)", "assay_type": "physicochemical", "protocol": "Formulation screening of stand alone nintedanib esylate and in combination with pirfenidone were conducted. Commonly used ionic osmolality adjusting agents include sodium chloride, sodium citrate, magnesium chloride were evaluated as excipients. In addition, mannitol and propylene glycol, which are […] osmolality adjusting agents, were also tested.\nThe resulting solutions, if not immediately precipitated, were filled into clear Type I glass vials and sealed with a Teflon lined rubber stopper and aluminum crimp cap. The test solutions were stored at ambient room condition in the dark. Visual appearance was periodically assessed within 24 hours and periodically thereafter. Table 31 summarizes the initial formulation screening results."}, "[2]": {"assay": "Tier 1: nintedanib esylate-excipient compatibility study", "assay_type": "physicochemical", "protocol": "Test solution 101-01-16-00 was filtered through a 0.22 micron PVDF filter, all other formulations were not filtered. The test solutions were filled into 10 mL clear Type I glass vials and sealed with Teflon-lined rubber stopper and aluminum crimp cap."}, "[3]": {"assay": "Tier 3: compatibility in 30 mM NaCl with a second excipient", "assay_type": "physicochemical", "protocol": "Compatibility of nintedanib esylate and nintedanib esylate plus pirfenidone control with sodium chloride and a second excipient was assessed. […] The test solutions were filled into 10 mL clear Type I glass vials with Teflon lined rubber stopper and aluminum crimp caps and stored at ambient room condition away from light."}, "[4]": {"assay": "Compatibility of nintedanib esylate with container system and membrane filter (nylon filter, LDPE vials)", "assay_type": "physicochemical", "excerpt": "Compatibility of Nintedanib Esylate with Container System and Type of Membrane Filter: The objective of this study is to determine the suitability of low density polyethylene (LDPE) vials and nylon filters for use with nintedanib esylate standalone and nintedanib esylate plus pirfenidone combination formulations. The test samples were stored at ambient room condition and periodically check for precipitation or crystallization."}, "[5]": {"assay": "Plasma and lung pharmacokinetics of nintedanib esylate, oral vs intratracheal aerosol", "assay_type": "in vivo, C57BL/6 mice", "conditions": "for adverse effect (dyspnea): mice; for Cmax / half-life / AUC(0-t): female, C57BL/6, mouse; for half-life: read-out: Elimination half-life (alpha-phase)"}, "[6]": {"assay": "Inhaled pharmacokinetics of fixed combination nintedanib esylate and pirfenidone", "assay_type": "in vivo, C57BL/6 mice", "conditions": "10.0 mg/kg each IT; for half-life: read-out: Elimination half-life (alpha-phase)", "protocol": "Plasma and lung tissue samples were taken 2, 5, 10, 20, 40 min and 1, 2, and 4 hours post dose. Nintedanib was extracted and quantitated as μg/mL plasma and μg/gram lung tissue."}, "[7]": {"assay": "Inhaled pharmacokinetics of nintedanib salt forms (intratracheal)", "assay_type": "in vivo, C57BL/6 mice", "conditions": "for half-life: C57BL/6, mouse, 1 mg/kg, read-out: Elimination half-life (alpha-phase); for Cmax: read-out: Cmax"}, "[8]": {"assay": "Therapeutic bleomycin model: dose levels and lung pharmacokinetic comparison", "assay_type": "in vivo, Sprague Dawley rats", "conditions": "Oral Gavage (PO) 60.0 mg/kg; rat"}, "[9]": {"test_system": "bleomycin pulmonary fibrosis", "assay": "Therapeutic bleomycin pulmonary fibrosis model: Ashcroft fibrosis score, hydroxyproline", "assay_type": "in vivo, Sprague Dawley rats", "conditions": "Oral Gavage (PO) 60 mg/kg BID; bleomycin rats", "protocol": "Briefly, acclimated Sprague Dawley male rats (c.a. 253 grams at first dosing) were administered bleomycin on days 1, 2, 3 and 6 by the oropharyngeal (OP) route. On the eighth day, treatment was initiated with either saline or nintedanib. […] Ten animals were enrolled into each dosing group. […] All animals were euthanized on day 28d. Body weights were collected throughout the study, with lung weights at termination (Table 55). Left lungs were extracted and measured for hydroxyproline content, while […] were subjected to histology for Ashcroft fibrosis score determination (Table 56)."}, "[10]": {"assay": "Therapeutic bleomycin model: body weight gain, lung weight-to-body weight ratio, tolerability", "conditions": "Oral Gavage (PO), dose group printed 0 mg/kg, BID; bleomycin rats"}, "[11]": {"conditions": "100.0 mg/kg PO, Lung (whole lung homogenate)"}, "[12]": {"conditions": "inhaled or intranasal, 2.5 mg/kg IT, Lung (whole lung homogenate)"}, "[13]": {"conditions": "inhaled or intranasal, 2.5 mg/kg IT, Plasma"}, "[14]": {"conditions": "inhaled or intranasal, 10.0 mg/kg IT, Lung (whole lung homogenate)"}, "[15]": {"conditions": "inhaled or intranasal, 10.0 mg/kg IT, Plasma"}, "[16]": {"conditions": "female, C57BL/6, mouse, inhaled or intranasal, Lung (whole lung homogenate)"}, "[17]": {"conditions": "female, C57BL/6, mouse, inhaled or intranasal, Plasma"}, "[18]": {"conditions": "1 mg/kg (base equivalent) IT, mice"}}}
{"smiles": "COC(=O)c1ccc2c(c1)NC(=O)/C2=C(\\Nc1ccc(N(C)C(=O)CN2CCN(C)CC2)cc1)c1ccccc1", "note": "[Nintedanib esylate]", "values": [{"measurement": "compatibility with sodium citrate", "setting": "[1]; aqueous solution", "value": "incompatible"}, {"measurement": "compatibility with sodium chloride", "setting": "[1]; sodium chloride at 30 mM", "value": "may be compatible"}, {"measurement": "compatibility with sodium chloride", "setting": "[1]; sodium chloride at 60 mM or higher", "value": "incompatible"}, {"measurement": "compatibility with clear borosilicate glass vial", "setting": "[2]", "value": "not compatible"}, {"measurement": "compatibility with PVDF membrane filter", "setting": "[2]; 0.22 μm", "value": "not compatible"}, {"measurement": "stability by itself in 30 mM NaCl", "setting": "[3]", "value": "not stable"}, {"measurement": "compatibility with NaCl", "setting": "[4]; NaCl at 30 mM, in absence of pirfenidone, irrespective of container type and filtration material", "value": "incompatible"}, {"measurement": "suitability of clear borosilicate glass vial", "setting": "[4]; even at 0.5 mg/mL nintedanib esylate", "value": "not suitable"}, {"measurement": "suitability of LDPE vial", "setting": "[4]; nintedanib esylate and nintedanib esylate in 1.5% propylene glycol solutions", "value": "suitable"}, {"measurement": "adverse effect (dyspnea)", "setting": "[5]; 2.5 mg/kg IT", "value": "not observed"}, {"measurement": "AUC 0-last", "setting": "[5]; 2.5 mg/kg IT, Lung (whole lung homogenate)", "value": 67.8, "unit": "mg·h/kg"}, {"measurement": "adverse effect (dyspnea)", "setting": "[5]; 10 mg/kg IT", "value": "caused dyspnea"}, {"measurement": "AUC 0-last", "setting": "[5]; 10.0 mg/kg IT, Lung (whole lung homogenate)", "value": 167.8, "unit": "mg·h/kg"}, {"measurement": "AUC 0-last", "setting": "[5]; [11]", "value": 24.1, "unit": "mg·h/kg"}, {"measurement": "Cmax", "setting": "[5]; [12]", "value": 57500, "unit": "ng/g"}, {"measurement": "half-life", "setting": "[5]; [12]", "value": 3.8, "unit": "min"}, {"measurement": "AUC(0-t)", "setting": "[5]; [13]", "value": 200, "unit": "ng·h/mL"}, {"measurement": "Cmax", "setting": "[5]; [13]", "value": 700, "unit": "ng/mL"}, {"measurement": "half-life", "setting": "[5]; [13]", "value": 2.3, "unit": "min"}, {"measurement": "Cmax", "setting": "[5]; [14]", "value": 250000, "unit": "ng/g"}, {"measurement": "half-life", "setting": "[5]; [14]", "value": 5.6, "unit": "min"}, {"measurement": "AUC(0-t)", "setting": "[5]; [15]", "value": 600, "unit": "ng·h/mL"}, {"measurement": "Cmax", "setting": "[5]; [15]", "value": 2700, "unit": "ng/mL"}, {"measurement": "half-life", "setting": "[5]; [15]", "value": 2.3, "unit": "min"}, {"measurement": "Cmax", "setting": "[5]; [11]", "value": 12100, "unit": "ng/g"}, {"measurement": "AUC(0-t)", "setting": "[5]; 100.0 mg/kg PO, Plasma", "value": 1800, "unit": "ng·h/mL"}, {"measurement": "Cmax", "setting": "[5]; 100.0 mg/kg PO, Plasma", "value": 600, "unit": "ng/mL"}, {"measurement": "half-life", "setting": "[5]; 100.0 mg/kg PO, Plasma", "value": 112, "unit": "min"}, {"measurement": "AUC 0-last", "setting": "[6]; Lung (whole lung homogenate)", "value": 68.4, "unit": "mg·h/kg"}, {"measurement": "Cmax", "setting": "[6]; [16]", "value": 171000, "unit": "ng/g"}, {"measurement": "half-life", "setting": "[6]; [16]", "value": 1.8, "unit": "min"}, {"measurement": "AUC(0-t)", "setting": "[6]; [17]", "value": 1000, "unit": "ng·h/mL"}, {"measurement": "Cmax", "setting": "[6]; [17]", "value": 2800, "unit": "ng/mL"}, {"measurement": "half-life", "setting": "[6]; [17]", "value": 7.7, "unit": "min"}, {"measurement": "Lung AUC", "setting": "[7]; [18]", "value": "about 20 mg·hr/kg"}, {"measurement": "lung half-life", "setting": "[7]; [18]", "value": "about 3 minutes"}, {"measurement": "half-life", "setting": "[7]; female, lung (whole lung homogenate), inhaled or intranasal, lung (whole lung homogenate), 1.0 mg/kg IT, C57BL/6 mice", "value": 2.9, "unit": "min"}, {"measurement": "half-life", "setting": "[7]; female, plasma, inhaled or intranasal, plasma, 1.0 mg/kg IT, C57BL/6 mice", "value": 2, "unit": "min"}, {"measurement": "Cmax", "setting": "[7]; female, mouse, inhaled or intranasal, lung (whole lung homogenate), 1.0 mg/kg IT, C57BL/6 mice", "value": 34500, "unit": "ng/g"}, {"measurement": "Cmax", "setting": "[7]; female, mouse, inhaled or intranasal, plasma, 1.0 mg/kg IT (base equivalent), C57BL/6 mice", "value": 400, "unit": "ng/mL"}, {"measurement": "AUC(0-t)", "setting": "[7]; female, mouse, inhaled or intranasal, plasma, 1.0 mg/kg IT, C57BL/6 mice", "value": 200, "unit": "ng·h/mL"}, {"measurement": "AUC 0-last", "setting": "[7]; lung (whole lung homogenate), 1.0 mg/kg IT, C57BL/6 mice", "value": 21.7, "unit": "mg·h/kg"}, {"measurement": "Lung AUC", "setting": "[8]", "value": 29.3, "unit": "mg·h/kg"}, {"measurement": "Lung Cmax", "setting": "[8]", "value": 4.4, "unit": "µg/g"}, {"measurement": "Fibrosis Score (SD) (Ashcroft)", "setting": "[9]", "value": "2.3 (0.45)"}, {"measurement": "Fibrosis Score, Delta to Vehicle (%)", "setting": "[9]", "value": 11.5, "unit": "%"}, {"measurement": "Body Weight Gain, Delta to Sham (%)", "setting": "[10]", "value": "−46.9", "unit": "%"}]}
